Experiment [1] relates to Ba/F3 (EGFR^Del19/T790M/C797S) cells. The experiment can be described thus: Assay of activity on Ba/F3 (EGFR^Del19/T790M/C797S) cells (CTG, 72 h). It is filed as cell-based. The method, then:
(§1) 30 nL of the compound dilution was added to a 384-well plate by Echo (Labcyte, Echo550). […] 2. Data Analysis
(§2) The percent inhibition rate (% inhibition) was calculated by the following formula
(§3) [formula] • LUMcmpd: Luminescence value of assay compound. • LUMpositive: Average LUM value of positive drug (Brigatinib) with a concentration of 10 μM. • LUMvehicle: Average LUM value of negative control group without drug treatment.
(§4) The nonlinear regression curve (dose response-variable slope) between the value of inhibition rate (%) and the logarithm of compound concentration was fitted with graphpad prism 8.0, the effect dose curve of compound was drawn, and the IC50 value was calculated. Y=Bottom+(Top−Bottom)/(1+10^((LogIC50−X)*HillSlope)) • X-axis: logarithm of compound concentration; Y axis: inhibition rate (% inhibition). 3.

The subject of experiment [2] is Ba/F3 (EGFR^L858R/T790M/C797S) cells. As to the kind of experiment: Assay of activity on Ba/F3 (EGFR^L858R/T790M/C797S) cells (CTG, 72 h). It is filed as cell-based. Here is the method:
as §1, §2, §3, §4

Experiment [3] deals with T1, EGFR^L858R/T790M/C797S (Homo sapiens (Human), UniProt P00533, C797S/L858R/T790M). The experiment can be described thus: Assay of inhibitory activity on EGFR (HTRF kinase assay). It is filed as biochemical. Conditions: mutant EGFR kinase. Here is the method: Formula of inhibition rate (%): […]
The nonlinear regression curve (dose response-variable slope) between the value of inhibition rate (%) and the logarithm of compound concentration was fitted with graphpad prism 8.0, the effect dose curve of compound was drawn, and IC50 value was calculated.
On the technique in general: Time-resolved FRET reads energy transfer from a long-lived donor to a nearby acceptor.

For experiment [4], the target named is T1, EGFR^L858R/T790M/C797S. The experiment can be described thus: Assay of activity of compounds for inducing EGFR^L858R/T790M/C797S protein degradation. It is filed as cell-based. The note with it: Ba/F3 (EGFR^L858R/T790M/C797S) cells. The method, then: In order to further explain the reason why the compounds of the present disclosure have inhibitory activity on Ba/F3 (EGFR^L858R/T790M/C797S) cells, representative compounds D3 was selected to study the mechanism of action of the compounds, and observe their effects on EGFR^L858R/T790M/C797S protein levels.
• Ba/F3 (EGFR^L858R/T790M/C797S) cells were cultured according to the culture conditions recommended by ATCC, and analyzed by index. • Complete medium: 1640 medium, 10% FBS, 1× glutamine, 1× penicillin-streptomycin. • Culture conditions: incubated at 37° C., 95% air, 5% CO2 incubator. (2) Compound Stock Solution:
10 mM stock solution in DMSO, stored at −20° C.
• The cells in the cell culture bottle were collected, and the cells with viability of >90% can be used in the assay. Cells were seeded in a 96-well plate with 40 μL cells, 1*10^5 cells/well. […] (6) Detection: • 1) 1 μg/mL of EGF activated cells were treated for 10 min; • 2) After the compound treatment, lysis buffer was added to lyse cells; 10 μL of cell lysate was transferred to a 384-well plate; in addition, 5 μL of acceptor mix was added to the 384-well plate, and shaken on a shaker for 1-2 min; • 3) 5 μL of donor mix was added to each well; the 384-well plate was sealed, shaken on a shaker for 1-2 min, left in the dark at room temperature overnight, and read with an enzyme labeling instrument. […]

Read-outs that look alike come from different tables or passages of the source.

Take “3-(1-oxo-4-(4-(4-(((R,E)-1^1,2^6,7-trimethyl-3-oxo-5^2,5^3-dihydro-1^1H,5^1H-11-oxa-4-aza-5 (2,1)-benzo[d]imidazole-2 (2,4)-pyridine-1 (4,5)-pyrazolecyclododecan-5^6-yl)methyl)piperazin-1-yl)butyl)isoindol-2-yl)piperidine-2,6-dione [Compound D1]”: the IC50 (usually the concentration that gives 50% inhibition) in experiment [1] turned out to be 2.7 nM; in experiment [2], 2.12 nM.

Turning to `Cc1cc2cc(n1)-c1cnn(C)c1OCCC[C@@H](C)CN1/C(=N/C2=O)Cc2ccc(CN3CCN(CCCCCCc4cccc5c4CN(C4CCC(=O)NC4=O)C5=O)CC3)cc21` (stereo partly drawn) [Compound D4, 3-(1-oxo-4-(6-(4-(((R,E)-1^1,2^6,7-trimethyl-3-oxo-5^2,5^3-dihydro-1^1H,5^1H-11-oxa-4-aza-5 (2,1)-benzo[d]imidazole-2 (2,4)-pyridine-1 (4,5)-pyrazolecyclododecan-5^6-yl)methyl)piperazin-1-yl)hexyl)isoindol-2-yl)piperidine-2,6-dione], the IC50 worked out at 4.41 nM in experiment [1], 10.1 nM in experiment [3] and 4.39 nM in experiment [2].

In the case of `C=CC(=O)Nc1cc(Nc2nccc(-c3cn(C)c4ccccc34)n2)c(OC)cc1N(C)CCN(C)C` [Osimertinib, reference compound], the IC50 in experiment [1] (Ba/F3 EGFR-Del19/T790M/C797S) is above 1000 nM; in experiment [2] (Mus musculus, BaF3), above 1000 nM.

Consider `Cc1cc2cc(n1)-c1cnn(C)c1OCCC[C@@H](C)CN1/C(=N/C2=O)Nc2ccc(CN3CCN(CCCCCc4cccc5c4CN(C4CCC(=O)NC4=O)C5=O)CC3)cc21` (stereo partly drawn) [Compound D3, 3-(1-oxo-4-(5-(4-(((R,E)-1^1,2^6,7-trimethyl-3-oxo-5^2,5^3-dihydro-1^1H,5^1H-11-oxa-4-aza-5 (2,1)-benzo[d]imidazole-2 (2,4)-pyridine-1 (4,5)-pyrazolecyclododecan-5^6-yl)methyl)piperazin-1-yl)pentyl)isoindol-2-yl)piperidine-2,6-dione], for which the 50% inhibitory concentration (IC50) in experiment [1] (Ba/F3 EGFR-Del19/T790M/C797S) is 3.13 nM; in experiment [3] it was 1.09 nM; in experiment [2] (Mus musculus, BaF3), 2.88 nM. The “effect on EGFR^L858R/T790M/C797S protein level (in words)” value in experiment [4] (6 h, dose-dependent) was “significantly reduces”. Further, in experiment [4] (6 h treatment, 0.01 nM to 1000 nM, read-out: DC50 (EGFR^L858R/T790M/C797S protein level)), the DC50 came out at 9.28 nM.

“3-(1-oxo-4-(5-(4-(((R,E)-1^1,2^6,7-trimethyl-3-oxo-5^2,5^3-dihydro-1^1H,5^1H-11-oxa-4-aza-5 (2,1)-benzo[d]imidazole-2 (2,4)-pyridine-1 (4,5)-pyrazolecyclododecan-5^6-yl)methyl)piperazin-1-yl) pent-1-yn-1-yl)isoindol-2-yl)piperidine-2,6-dione [Compound D2]”: the IC50 in experiment [1] is 3.89 nM; in experiment [2] it was 3.96 nM.

As to `Cc1cc2cc(n1)-c1cnn(C)c1OCCC[C@@H](C)CN1/C(=N/C2=O)Nc2ccc(CN3CCN(CCCCCCCc4cccc5c4CN(C4CCC(=O)NC4=O)C5=O)CC3)cc21` (stereo partly drawn) [Compound D5, 3-(1-oxo-4-(7-(4-(((R,E)-1^1,2^6,7-trimethyl-3-oxo-5^2,5^3-dihydro-1^1H,5^1H-11-oxa-4-aza-5 (2,1)-benzo[d]imidazole-2 (2,4)-pyridine-1 (4,5)-pyrazolecyclododecan-5^6-yl)methyl)piperazin-1-yl)heptyl)isoindol-2-yl)piperidine-2,6-dione], the IC50 was 10.7 nM in experiment [1] (Ba/F3 EGFR-Del19/T790M/C797S); 35.9 nM in experiment [3]; 11.6 nM in experiment [2] (Mus musculus, BaF3).
